In patent US12686674B2, “Crystal form of compound represented by formula I, and preparation therefor and application thereof” (Shanghai Zhimeng Biopharma, Inc., priority 2021, dated 2026):
In brackets after ≈: the same amount, converted by molar mass.

Tests used:
Assay type in all cases: physicochemical
[1] = Influencing factor test of crystal form A (high temperature, high humidity, light); conditions: High temperature (60° C.), Day 30
[2] = Hygroscopicity by DVS at 25° C.
Description: Hygroscopicity data of samples were collected using an ADVENTURE series dynamic vapor phase adsorption system (DVS) under N2 protection. Sample dosage ~30 mg. The testing method for anhydrous crystal form is as follows: • 1) Relative humidity increase process: 0% RH to 90% RH at a rate of 10% RH/stage; 90% RH to 95% RH at a rate of 5% RH/stage; • 2) Relative humidity reduction process: 95% RH to 90% RH at a rate of 5% RH/stage; 90% RH to 5% RH at a rate of 10% RH/stage. H Nuclear Magnetic Resonance Spectroscopy (H-NMR)

[3] = Rough solubility at room temperature
Description: Specifically, ~2 mg of the starting material was weighed in an HPLC vial, the solvents in the following table were added step by step (50/50/200/700 μL) until the solid is completely dissolved or the total volume reaches 1.0 mL.

[4] = Influencing factor test of crystal form A (high temperature, high humidity, light)
Source text: Sample purity and solubility data were collected using an Agilent model 1260 high-performance liquid chromatograph (equipped with DAD detector). [table]

[5] = High humidity (25° C., 90% ± 5%), Day 5
[6] = High humidity (25° C., 90% ± 5%), Day 10
[7] = High humidity (25° C., 90% ± 5%), Day 30
[8] = High temperature (60° C.), Day 5
[9] = High temperature (60° C.), Day 10
[10] = High temperature (60° C.), Day 30
[11] = High temperature and humidity (60° C., 75% ± 5%), Day 5
[12] = High temperature and humidity (60° C., 75% ± 5%), Day 10
[13] = High temperature and humidity (60° C., 75% ± 5%), Day 30
[14] = Light exposure (25° C., 4500 Lx ± 500 Lx, NUV 0.9 w/m^2), bare sample, Day 5
[15] = Light exposure (25° C., 4500 Lx ± 500 Lx, NUV 0.9 w/m^2), bare sample, Day 10
[16] = Light exposure (25° C., 4500 Lx ± 500 Lx, NUV 0.9 w/m^2), bare sample, Day 30

SMILES: O=C1CO[C@H](c2cn(-c3ccc(Br)cc3)nc2-c2ccc(F)cc2)N1CCc1ccc2[nH]c(=O)[nH]c2c1 [Crystal form A]
- Moisture (KF) [1]: 0.09%
- hygroscopicity ([2]; DVS at 25° C.): hardly hygroscopic
- weight gain (DVS) ([2]; at 80% RH, 25° C.): 0.14%
- crystal form after DVS testing (XRPD) ([2]; before and after DVS test): unchanged
- solubility ([3]; organic solvent or mixture, thermodynamic from solid, 1,4-Dioxane): 6900 to 20700 µg/mL (≈ 12.3 to 36.8 mM)
- solubility ([3]; organic solvent or mixture, thermodynamic from solid, 2-MeTHF): 6900 to 20700 µg/mL (≈ 12.3 to 36.8 mM)
- solubility ([3]; organic solvent or mixture, thermodynamic from solid, ACN): < 2100 µg/mL
- solubility ([3]; organic solvent or mixture, thermodynamic from solid, Acetone): 6800 to 20300 µg/mL (≈ 12.1 to 36.1 mM)
- solubility ([3]; organic solvent or mixture, thermodynamic from solid, CH3COOH): > 41800 µg/mL
- solubility ([3]; organic solvent or mixture, thermodynamic from solid, CPME): < 2000 µg/mL
- solubility ([3]; organic solvent or mixture, thermodynamic from solid, DCM): < 2100 µg/mL
- solubility ([3]; organic solvent or mixture, thermodynamic from solid, DMF): > 41200 µg/mL
- solubility ([3]; organic solvent or mixture, thermodynamic from solid, DMSO): > 40400 µg/mL
- solubility ([3]; organic solvent or mixture, thermodynamic from solid, EtOAc): < 2100 µg/mL
- solubility ([3]; organic solvent or mixture, thermodynamic from solid, EtOH): 2000 to 6700 µg/mL (≈ 3.56 to 11.9 mM)
- solubility ([3]; organic solvent or mixture, thermodynamic from solid, IPA): < 2100 µg/mL
- solubility ([3]; organic solvent or mixture, thermodynamic from solid, IPAc): < 2000 µg/mL
- solubility ([3]; organic solvent or mixture, thermodynamic from solid, MEK): 2000 to 6600 µg/mL (≈ 3.56 to 11.7 mM)
- solubility ([3]; organic solvent or mixture, thermodynamic from solid, MIBK): < 2000 µg/mL
- solubility ([3]; organic solvent or mixture, thermodynamic from solid, MTBE): < 2000 µg/mL
- solubility ([3]; organic solvent or mixture, thermodynamic from solid, MeOH): 2000 to 6600 µg/mL (≈ 3.56 to 11.7 mM)
- solubility ([3]; organic solvent or mixture, thermodynamic from solid, THF): > 40400 µg/mL
- solubility ([3]; organic solvent or mixture, thermodynamic from solid, Toluene): < 2000 µg/mL
- solubility ([3]; organic solvent or mixture, thermodynamic from solid, n-Heptane): < 2000 µg/mL
- solubility ([3]; water, thermodynamic from solid, H2O): < 2100 µg/mL
- Content (HPLC, calculated by anhydrous substance) ([4]; Day 0, Table M-2): 99.2%
- Moisture (KF) ([4]; Day 0, Table M-2): 0.11%
- Other single impurity RRT~1.10 (HPLC) ([4]; Day 0, Table M-2): 0:0.14%
- Other single impurity RRT~1.23 (HPLC) ([4]; Day 0, Table M-2): 3:0.03%
- Other single impurity RRT~1.44 (HPLC) ([4]; Day 0, Table M-2): 4:0.03%
- Other single impurity RRT~1.53 (HPLC) ([4]; Day 0, Table M-2): 3:0.03%
- Other single impurity RRT~1.87 (HPLC) ([4]; Day 0, Table M-2): 7:0.03%
- Total impurities (HPLC) ([4]; Day 0, Table M-2): 0.26%
- Content (HPLC, calculated by anhydrous substance) ([4]; Day 0, Table M-3): 99.8%
- Moisture (KF) ([4]; Day 0, Table M-3): 0.11%
- Other single impurity RRT~1.10 (HPLC) ([4]; Day 0, Table M-3): 0:0.13%
- Other single impurity RRT~1.24 (HPLC) ([4]; Day 0, Table M-3): 4:0.03%
- Other single impurity RRT~1.48 (HPLC) ([4]; Day 0, Table M-3): 8:0.03%
- Other single impurity RRT~1.58 (HPLC) ([4]; Day 0, Table M-3): 8:0.03%
- Other single impurity RRT~1.97 (HPLC) ([4]; Day 0, Table M-3): 7:0.03%
- Total impurities (HPLC) ([4]; Day 0, Table M-3): 0.25%
- Content (HPLC, calculated by anhydrous substance) [4, 5]: 99.4%
- Moisture (KF) [4, 5]: 0.21%
- Other single impurity RRT~1.10 (HPLC) [4, 5]: 0:0.14%
- Other single impurity RRT~1.24 (HPLC) [4, 5]: 4:0.04%
- Other single impurity RRT~1.48 (HPLC) [4, 5]: 8:0.03%
- Other single impurity RRT~1.59 (HPLC) [4, 5]: 9:0.03%
- Other single impurity RRT~1.92 (HPLC) [4, 5]: 2:0.03%
- Other single impurity RRT~1.97 (HPLC) [4, 5]: 7:0.03%
- Total impurities (HPLC) [4, 5]: 0.30%
- Content (HPLC, calculated by anhydrous substance) [4, 6]: 99.7%
- Moisture (KF) [4, 6]: 0.23%
- Other single impurity RRT~1.10 (HPLC) [4, 6]: 0:0.13%
- Other single impurity RRT~1.24 (HPLC) [4, 6]: 4:0.03%
- Other single impurity RRT~1.46 (HPLC) [4, 6]: 6:0.03%
- Other single impurity RRT~1.56 (HPLC) [4, 6]: 6:0.03%
- Other single impurity RRT~1.88 (HPLC) [4, 6]: 8:0.03%
- Other single impurity RRT~1.93 (HPLC) [4, 6]: 3:0.03%
- Total impurities (HPLC) [4, 6]: 0.28%
- Content (HPLC, calculated by anhydrous substance) [4, 7]: 101.3%
- Moisture (KF) [4, 7]: 0.10%
- Other single impurity RRT~1.10 (HPLC) [4, 7]: 0:0.15%
- Other single impurity RRT~1.24 (HPLC) [4, 7]: 4:0.03%
- Other single impurity RRT~1.48 (HPLC) [4, 7]: 8:0.03%
- Other single impurity RRT~1.59 (HPLC) [4, 7]: 9:0.03%
- Other single impurity RRT~1.92 (HPLC) [4, 7]: 2:0.03%
- Other single impurity RRT~1.97 (HPLC) [4, 7]: 7:0.03%
- Total impurities (HPLC) [4, 7]: 0.30%
- Content (HPLC, calculated by anhydrous substance) [4, 8]: 99.1%
- Moisture (KF) [4, 8]: 0.09%
- Other single impurity RRT~1.10 (HPLC) [4, 8]: 0:0.13%
- Other single impurity RRT~1.24 (HPLC) [4, 8]: 4:0.04%
- Other single impurity RRT~1.48 (HPLC) [4, 8]: 8:0.03%
- Other single impurity RRT~1.59 (HPLC) [4, 8]: 9:0.03%
- Other single impurity RRT~1.92 (HPLC) [4, 8]: 2:0.03%
- Other single impurity RRT~1.97 (HPLC) [4, 8]: 7:0.03%
- Total impurities (HPLC) [4, 8]: 0.29%
- Content (HPLC, calculated by anhydrous substance) [4, 9]: 99.8%
- Moisture (KF) [4, 9]: 0.09%
- Other single impurity RRT~1.10 (HPLC) [4, 9]: 0:0.14%
- Other single impurity RRT~1.24 (HPLC) [4, 9]: 4:0.03%
- Other single impurity RRT~1.46 (HPLC) [4, 9]: 6:0.03%
- Other single impurity RRT~1.56 (HPLC) [4, 9]: 6:0.03%
- Other single impurity RRT~1.93 (HPLC) [4, 9]: 3:0.03%
- Total impurities (HPLC) [4, 9]: 0.26%
- Content (HPLC, calculated by anhydrous substance) [4, 10]: 100.9%
- Other single impurity RRT~1.10 (HPLC) [4, 10]: 0:0.14%
- Other single impurity RRT~1.24 (HPLC) [4, 10]: 4:0.03%
- Other single impurity RRT~1.48 (HPLC) [4, 10]: 8:0.03%
- Other single impurity RRT~1.58 (HPLC) [4, 10]: 8:0.03%
- Other single impurity RRT~1.92 (HPLC) [4, 10]: 2:0.03%
- Other single impurity RRT~1.97 (HPLC) [4, 10]: 7:0.03%
- Total impurities (HPLC) [4, 10]: 0.29%
- Content (HPLC, calculated by anhydrous substance) [4, 11]: 99.6%
- Moisture (KF) [4, 11]: 0.12%
- Other single impurity RRT~1.10 (HPLC) [4, 11]: 0:0.14%
- Other single impurity RRT~1.24 (HPLC) [4, 11]: 4:0.03%
- Other single impurity RRT~1.46 (HPLC) [4, 11]: 6:0.03%
- Other single impurity RRT~1.56 (HPLC) [4, 11]: 6:0.03%
- Other single impurity RRT~1.88 (HPLC) [4, 11]: 8:0.03%
- Other single impurity RRT~1.93 (HPLC) [4, 11]: 3:0.03%
- Total impurities (HPLC) [4, 11]: 0.29%
- Content (HPLC, calculated by anhydrous substance) [4, 12]: 101.3%
- Moisture (KF) [4, 12]: 0.14%
- Other single impurity RRT~1.10 (HPLC) [4, 12]: 0:0.14%
- Other single impurity RRT~1.24 (HPLC) [4, 12]: 4:0.03%
- Other single impurity RRT~1.48 (HPLC) [4, 12]: 8:0.03%
- Other single impurity RRT~1.59 (HPLC) [4, 12]: 9:0.03%
- Other single impurity RRT~1.97 (HPLC) [4, 12]: 7:0.03%
- Total impurities (HPLC) [4, 12]: 0.26%
- Content (HPLC, calculated by anhydrous substance) [4, 13]: 99.3%
- Moisture (KF) [4, 13]: 0.14%
- Other single impurity RRT~1.10 (HPLC) [4, 13]: 0:0.14%
- Other single impurity RRT~1.24 (HPLC) [4, 13]: 4:0.03%
- Other single impurity RRT~1.48 (HPLC) [4, 13]: 8:0.03%
- Other single impurity RRT~1.58 (HPLC) [4, 13]: 8:0.03%
- Other single impurity RRT~1.96 (HPLC) [4, 13]: 6:0.03%
- Total impurities (HPLC) [4, 13]: 0.26%
- Content (HPLC, calculated by anhydrous substance) [4, 14]: 99.6%
- Moisture (KF) [4, 14]: 0.10%
- Other single impurity RRT~1.10 (HPLC) [4, 14]: 0:0.14%
- Other single impurity RRT~1.24 (HPLC) [4, 14]: 4:0.03%
- Other single impurity RRT~1.46 (HPLC) [4, 14]: 6:0.03%
- Other single impurity RRT~1.56 (HPLC) [4, 14]: 6:0.03%
- Other single impurity RRT~1.93 (HPLC) [4, 14]: 3:0.03%
- Total impurities (HPLC) [4, 14]: 0.26%
- Content (HPLC, calculated by anhydrous substance) [4, 15]: 100.7%
- Moisture (KF) [4, 15]: 0.10%
- Other single impurity RRT~1.10 (HPLC) [4, 15]: 0:0.14%
- Other single impurity RRT~1.24 (HPLC) [4, 15]: 4:0.03%
- Other single impurity RRT~1.48 (HPLC) [4, 15]: 8:0.03%
- Other single impurity RRT~1.59 (HPLC) [4, 15]: 9:0.03%
- Other single impurity RRT~1.97 (HPLC) [4, 15]: 7:0.03%
- Total impurities (HPLC) [4, 15]: 0.26%
- Content (HPLC, calculated by anhydrous substance) [4, 16]: 99.8%
- Moisture (KF) [4, 16]: 0.10%
- Other single impurity RRT~1.10 (HPLC) [4, 16]: 0:0.13%
- Other single impurity RRT~1.24 (HPLC) [4, 16]: 4:0.03%
- Other single impurity RRT~1.48 (HPLC) [4, 16]: 8:0.03%
- Other single impurity RRT~1.58 (HPLC) [4, 16]: 8:0.03%
- Other single impurity RRT~1.97 (HPLC) [4, 16]: 7:0.03%
- Total impurities (HPLC) [4, 16]: 0.25%
